Source: ChEMBL document CHEMBL5712891, “Inhibition of BET bromodomain-dependent XIAP and FLIP expression sensitizes KRAS-mutated NSCLC to pro-apoptotic agents” (Cell Death Dis, 2016)
Active and inactive are the calls of the source. No cut-off for these calls is given here.

Legend:
NCI-H460 [1] = test: Induction of apoptosis in human NCI-H460 cells assessed as necrotic cells at 2.5 uM for 24 hrs by annexin V-PI staining based flow cytometric analysis (reference value: 3.2%); type: functional
NCI-H460 [2] = test: Induction of apoptosis in human NCI-H460 cells assessed as viable cells at 0.5 uM for 24 hrs by annexin V-PI staining based flow cytometric analysis (reference value: 92.8%); type: functional; details: read-out: Activity
DV-90 [3] = test: Induction of apoptosis in human DV-90 cells assessed as early apoptotic cells at 0.5 uM for 48 hrs by annexin V-PI staining based flow cytometric analysis (reference value: 1.0%)
NCI-H1373 [4] = test: Induction of apoptosis in human NCI-H1373 cells assessed as late apoptotic cells at 0.5 uM for 24 hrs by annexin V-PI staining based flow cytometric analysis (reference value: 22.3%); type: functional
NCI-H460 [5] = test: Induction of apoptosis in human NCI-H460 cells assessed as late apoptotic cells at 2.5 uM for 24 hrs by annexin V-PI staining based flow cytometric analysis (reference value: 3.7%); type: functional
DV-90 [6] = test: Induction of cell cycle arrest in human DV-90 cells assessed as accumulation of cells at G2/M phase at 0.25 uM for 24 hrs by Click-iT EdU Alexa Fluor 647 flow cytometric assay kit analysis (reference value: 25%); type: functional
NCI-H460 [7] = test: Induction of cell cycle arrest in human NCI-H460 cells assessed as accumulation of cells at G0/G1 phase at 0.25 uM for 24 hrs by Click-iT EdU Alexa Fluor 647 flow cytometric assay kit analysis (reference value: 45%); type: functional
DV-90 [8] = test: Induction of cell cycle arrest in human DV-90 cells assessed as accumulation of cells at S phase at 1 uM for 24 hrs by Click-iT EdU Alexa Fluor 647 flow cytometric assay kit analysis (reference value: 30%); type: functional
DV-90 [9] = test: Induction of cell cycle arrest in human DV-90 cells assessed as accumulation of cells at S phase at 0.25 uM for 24 hrs by Click-iT EdU Alexa Fluor 647 flow cytometric assay kit analysis (reference value: 30%); type: functional
NCI-H1373 [10] = test: Induction of cell cycle arrest in human NCI-H1373 cells assessed as accumulation of cells at S phase at 1 uM for 24 hrs by Click-iT EdU Alexa Fluor 647 flow cytometric assay kit analysis (reference value: 45%); type: functional
A549 [11] = test: Induction of cell cycle arrest in human A549 cells assessed as accumulation of cells at G2/M phase at 0.25 uM for 24 hrs by Click-iT EdU Alexa Fluor 647 flow cytometric assay kit analysis (reference value: 3%); type: functional
A549 [12] = test: Induction of apoptosis in human A549 cells assessed as late apoptotic cells at 2.5 uM for 24 hrs by annexin V-PI staining based flow cytometric analysis (reference value: 2.3%); type: functional
NCI-H1373 [13] = test: Induction of TRAIL dependent apoptosis in human NCI-H1373 cells assessed as late apoptotic cells at 1 uM in presence of […] by annexin V-PI staining based flow cytometric analysis (reference value: 8.3%); type: functional
[14] = Toxicity in SCID mouse xenografted with human A549 cells assessed as body weight loss administered at 80 mg/kg, ip for 28 days relative to control; type: organism-based; details: in vivo, 672 h, time 28 day
NCI-H2347 = test: Downregulation of FLIP mRNA expression level in human NCI-H2347 cells at 0.1 to 1 uM for 24 hrs by qRT-PCR analysis; type: functional, cell-based; details: dose 0.1-1 µM
[15] = Toxicity in SCID mouse xenografted with human A549 cells assessed as body weight loss administered at 50 mg/kg, ip for 28 days relative to control; type: organism-based; details: in vivo, 672 h, time 28 day
A549 [16] = test: Induction of apoptosis in human A549 cells assessed as viable cells at 2.5 uM for 24 hrs by annexin V-PI staining based flow cytometric analysis (reference value: 96%); type: functional; details: read-out: Activity
NCI-H1373 [17] = test: Induction of apoptosis in human NCI-H1373 cells assessed as viable cells at 0.5 uM for 24 hrs by annexin V-PI staining based flow cytometric analysis (reference value: 77.7%); type: functional; details: read-out: Activity
LCLC-97TM1 = test: Downregulation of FLIP mRNA expression level in human LCLC-97TM1 cells at 0.1 to 1 uM for 24 hrs by qRT-PCR analysis; type: functional, cell-based; details: dose 0.1-1 µM
NCI-H460 [18] = test: Downregulation of c-MYC protein expression level in human NCI-H460 cells at 1 uM for 24 hrs by […] analysis; type: functional, cell-based
A549 [19] = test: Downregulation of XIAP protein expression level in human A549 cells at 1 uM for 24 hrs by […] analysis; type: functional, cell-based
NCI-H460 [20] = test: Induction of apoptosis in human NCI-H460 cells assessed as early apoptotic cells at 0.5 uM for 24 hrs by annexin V-PI staining based flow cytometric analysis (reference value: 0.2%); type: functional
DV-90 [21] = test: Downregulation of XIAP protein expression level in human DV-90 cells at 1 uM for 24 hrs by […] analysis; type: functional, cell-based
DV-90 [22] = test: Induction of apoptosis in human DV-90 cells assessed as early apoptotic cells at 2.5 uM for 24 hrs by annexin V-PI staining based flow cytometric analysis (reference value: 1.7%); type: functional
NCI-H1373 [23] = test: Downregulation of c-MYC protein expression level in human NCI-H1373 cells at 1 uM for 24 hrs by […] analysis; type: functional, cell-based
NCI-H1373 [24] = test: Induction of cell cycle arrest in human NCI-H1373 cells assessed as accumulation of cells at S phase at 0.25 uM for 24 hrs by Click-iT EdU Alexa Fluor 647 flow cytometric assay kit analysis (reference value: 45%); type: functional
NCI-H1373 [25] = test: Induction of cell cycle arrest in human NCI-H1373 cells assessed as accumulation of cells at G0/G1 phase at 1 uM for 24 hrs by Click-iT EdU Alexa Fluor 647 flow cytometric assay kit analysis (reference value: 40%); type: functional
A549 [26] = test: Induction of cell cycle arrest in human A549 cells assessed as accumulation of cells at G0/G1 phase at 1 uM for 24 hrs by Click-iT EdU Alexa Fluor 647 flow cytometric assay kit analysis (reference value: 61%); type: functional
DV-90 [27] = test: Induction of cell cycle arrest in human DV-90 cells assessed as accumulation of cells at G2/M phase at 1 uM for 24 hrs by Click-iT EdU Alexa Fluor 647 flow cytometric assay kit analysis (reference value: 24%); type: functional
NCI-H1373 [28] = test: Induction of TRAIL dependent apoptosis in human NCI-H1373 cells assessed as necrotic cells at 1 uM by annexin V-PI staining based flow cytometric analysis (reference value: 3.6%); type: functional
A549 [29] = test: Induction of apoptosis in human A549 cells assessed as necrotic cells at 2.5 uM for 24 hrs by annexin V-PI staining based flow cytometric analysis (reference value: 1.3%); type: functional
HFF-1 = test: Cytotoxicity against HFF-1 cells at 500 to 2500 nM in presence of TNF by cell titre glo assay; type: toxicity, cell-based; details: human, hff-1, 2.5 µM; dose 500-2500 nM
NCI-H460 [30] = test: Downregulation of c-MYC mRNA expression level in human NCI-H460 cells at 0.1 to 1 uM for 24 hrs by qRT-PCR analysis; type: functional, cell-based; details: dose 0.1-1 µM

SMILES: Cc1sc2c(c1C)C(c1ccc(Cl)cc1)=N[C@@H](CC(=O)Nc1ccc(O)cc1)c1nnc(C)n1-2 [BIRABRESIB]
- Activity (NCI-H460 [1]): 3.9%
- viability at 0.5 µM (NCI-H460 [2]): 90.6%
- Activity (DV-90 [3]): 2.8%
- Activity (NCI-H1373 [4]): 20.5%
- Activity (NCI-H460 [5]): 5.1%

SMILES: CCNC(=O)C[C@@H]1N=C(c2ccc(Cl)cc2)c2cc(OC)ccc2-n2c(C)nnc21 [MOLIBRESIB]
- Activity (DV-90 [6]): 31%
- Activity (NCI-H460 [7]): 43%
- Activity (DV-90 [8]): 22%
- Activity (DV-90 [9]): 22%

SMILES: Cc1sc2c(c1C)C(c1ccc(Cl)cc1)=N[C@@H](CC(=O)OC(C)(C)C)c1nnc(C)n1-2
- Activity (NCI-H1373 [10]): 7%
- Activity (A549 [11]): 3%
- Activity (A549 [12]): 1.8%
- Activity (NCI-H1373 [13]): 35.9%
- Activity [14]: 7%
- Activity (NCI-H2347): Active
- Activity [15]: 5%
- viability at 2.5 µM (A549 [16]): 97%
- viability at 0.5 µM (NCI-H1373 [17]): 64.3%
- Activity (LCLC-97TM1): Active
- Activity (NCI-H460 [18]): Active
- Activity (A549 [19]): Active
- Activity (NCI-H460 [20]): 0.2%
- Activity (DV-90 [21]): Active
- Activity (DV-90 [22]): 1.9%
- Activity (NCI-H1373 [23]): Active
- Activity (NCI-H1373 [24]): 21%
- Activity (NCI-H1373 [25]): 68%
- Activity (A549 [26]): 64%
- Activity (DV-90 [27]): 27%
- Activity (NCI-H1373 [28]): 19.1%
- Activity (A549 [29]): 0.9%
- Activity (HFF-1): Non-Toxic
- Activity (NCI-H460 [30]): Active
